# Measurements reported in patent US9125898B2, “Acetam derivatives for pain relief” (NEUROTUNE AG, priority 2008, dated 2015).
# Experiments:
# [1] = tested on: ddC induced mechanical allodynia in rats; test: ddC induced mechanical allodynia in rats, von Frey test; type: in vivo, rat; details: FIG. 4; 15 min after drug administration
# Method: Painful peripheral NP may be induced in rats by i.v. administration of 2′,3′-dideoxycytidine (ddC) mimicking what is seen in AIDS patients undergoing antiviral therapy. The ddC test represents a useful and predictive model to study molecules with analgesic potential in human neuropathic states.
# Adult male SD rats (Harlan, Italy, 150-200 g weight) were used. Animals were treated with 25 mg/kg i.v. bolus of 2′,3′-dideoxycytidine, an inhibitor of nucleoside reverse transcriptase used for AIDS therapy that in rodents induces a peripheral neuropathy resulting in allodynic responses to mechanical stimuli. Symptoms severity peaks between 5 to 10 days after administration (Joseph, E. K. et al. —Pain 107 (2004) 147-158). Ten days after administration of ddC, as an intravenous (i.v.) bolus, test substances were administered every day, once a day or b.i.d for 4 weeks. Dosing was withheld in those days in which allodynic tests were performed, and lasted for 24 h and 48 h.
# NT-11624 was dissolved in distilled water and was orally by gavage administered as follows • Group 1: 100 mg/kg b.i.d. for 14 days, followed by 50 mg/kg b.i.d. for 7 days, then 50 mg/kg u.i.d. for 7 days. • Group 2: 50 mg/kg b.i.d. for 28 days.
# Pregabalin (3B Pharmachem (Wuhan) International Co.) was dissolved in 1% CMC (carboxymethylcellulose) and orally administered at the dose of 15 mg/kg b.i.d. for 28 days.
# Thresholds for mechanical allodynia were measured using an electronic Von Frey apparatus. […] After 4 week drug administration, additional tests were performed beyond the 60 min point, at 4, 8, 24, 48 and 56 h. Results represent the mean (±S.E.M.) of mechanical thresholds expressed in grams.
# Drugs: The following substance was used: NT-11624 (batch No. 0000104580 supplied by Brane Discovery Srl, Gerenzano Italy). NT-11624 was dissolved in distilled water and given p.o. every day, except in those days in which allodynic tests were performed and lasted for 24 h, 48 h and 56 h (i.e. days 1, 3, 7, 10, 14, 21, 28).
# The following groups of treatment were utilized: • NT-11624 (Group 1): rats received 100 mg/kg b.i.d. of NT-11624 for 14 days, then 50 mg/kg b.i.d. for 7 days, then 50 mg/kg u.i.d. for 7 days. • NT-11624 (Group 2): rats received 50 mg/kg b.i.d. for 28 days • Pregabalin: rats received 15 mg/kg b.i.d. for 28 days
# Administration volume was 10 ml/kg body weight. Pregabalin [3B Pharmachem (Wuhan), International Co] was dissolved in CMC 1% (carboxymethylcellulose, Sigma-Aldrich, Italy), and orally given as described before. Control rats received vehicle only.
# ddC intravenous injection: ddC was dissolved in saline to a concentration of 25 mg/kg (1 ml) and was administered i.v. into the rat tail vein. Control rats were treated with an equal volume of saline i.v.
# The administration of ddC produces dose-dependent mechanical hypersensitivity and allodynia peaking in severity between 5-10 days after the administration. The test is usually performed at day 10.
# Von Frey test: Each animal was placed in a chamber with a mesh metal floor covered by a plastic dome that enabled the animal to walk freely, but not to jump. The mechanical stimulus was then delivered in the mid-plantar skin of left hind paw using an electronic Von Frey apparatus (37400 Dynamic Plantar Aesthesiometer; Ugo Basile, Comerio, Varese, Italy). The cut-off was fixed at 50 g, while the increasing force rate (ramp duration) was settled at 20 sec. […] At day 28, additional tests were performed at 4, 8, 24, 48 and 56 h after drug administration. Results represent the mean (±S.E.M.) of mechanical thresholds expressed as grams.
# [2] = tested on: chronic constriction injury induced hyperalgesia in the rat; test: Chronic constriction injury induced hyperalgesia in the rat (paw-pressure test); type: in vivo; details: for Paw pressure, pre-test before all treatments: baseline, drug 100 mg/kg p.o.; for Paw pressure, 5 day 30 min / Paw pressure, 10 day 30 min / Paw pressure, 14 day 30 min / Paw pressure, 14 day 4 h / Paw pressure, 14 day 8 h / Paw pressure, 15 day 24 h / Paw pressure, 18 day 3 days: 100 mg/kg p.o. once a day for 14 days
# Method: In the repeated administration protocol, NT-13317 was orally administered at 100 mg/kg in 1% CMC once a day for 14 days starting from the day of sciatic nerve ligation.
# Peripheral rat mononeuropathy (Chronic constriction injury): Neuropathy was induced according to the procedure described by Bennett and Xie (Bennett G J, Xie Y K. A peripheral mononeuropathy in rat that produces disorders of pain sensation like those seen in man. Pain 1988; 33: 87-107).
# Briefly, rats were anaesthetized with chloral hydrate 400 mg/kg intraperitoneally (i.p.); under aseptic conditions, the right common sciatic nerve was exposed at the level of the middle thigh by blunt dissection. Proximal to the trifurcation, the nerve was carefully freed from the surrounding connective tissue and four chromic cat gut ligatures (4-0, Ethicon, Norderstedt, Germany) were tied loosely around it with about 1 mm spacing. After haemostasis was confirmed, the incision was closed in layers. Then animals were allowed to recover from anaesthesia and surgery and were kept one per cage with free access to water and standard laboratory chow.
# Statistical analysis: All experimental results are given as the mean±S.E.M. An analysis of variance, ANOVA, followed by Fisher's protected least significant difference procedure for post hoc comparison, were used to verify significance between two means of behavioural results. Data were analyzed with the StatView software for the Macintosh (1992). P values≦0.05 were considered significant.
# Data of mechanical threshold (PWT) were converted to a percentage of the maximal possible effect (% MPE), according to Veneroni, O. et al. as follows: %MPE=(left dose PWT−left pre-dose control PWT)/(left naïve PWT−left pre-dose PWT)*100
# The obtained % MPE were employed for ED50 calculation (obtained by Grafit v. 5.0), defined as the dose producing 50% reversal of mechanical allodynia.
smiles,measurement,setting,value
"NCC1(CC(=O)O)CCCCC1 [GABAPENTIN, Gabapentin, reference compound]","Reversal of ddC-induced neuropathy (mechanical threshold, von Frey)",[1],not
same,"Paw pressure, pre-test before all treatments",[2]; CCI group,62.9 ± 3.3 g
same,"Paw pressure, 5 day 30 min",[2]; CCI,52.4 ± 4.6 g
same,"Paw pressure, 10 day 30 min",[2]; CCI,52.7 ± 5.6 g
same,"Paw pressure, 14 day 30 min",[2]; CCI,56.7 ± 6.2 g
same,"Paw pressure, 14 day 4 h",[2]; CCI,57.1 ± 5.5 g
same,"Paw pressure, 14 day 8 h",[2]; CCI,62.3 ± 6.5 g
same,"Paw pressure, 15 day 24 h",[2]; CCI,59.6 ± 5.7 g
same,"Paw pressure, 18 day 3 days",[2]; CCI,58.2 ± 5.5 g
same,"Paw pressure, pre-test before all treatments",[2]; SHAM group,61.8 ± 2.9 g
same,"Paw pressure, 5 day 30 min",[2]; SHAM,63.2 ± 4.1 g
same,"Paw pressure, 10 day 30 min",[2]; SHAM,69.2 ± 5.1 g
same,"Paw pressure, 14 day 30 min",[2]; SHAM,71.2 ± 6.3 g
same,"Paw pressure, 14 day 4 h",[2]; SHAM,69.2 ± 5.6 g
same,"Paw pressure, 14 day 8 h",[2]; SHAM,70.4 ± 5.9 g
same,"Paw pressure, 15 day 24 h",[2]; SHAM,68.5 ± 5.8 g
same,"Paw pressure, 18 day 3 days",[2]; SHAM,66.4 ± 4.8 g
same,Effect on paw pressure test after the last administration (in words),[2]; p.o. 100 mg/kg once a day for 14 days from the day of sciatic nerve ligation,still active after 72 hr
